Measured values as given in patent publication US7879858B2, “Substituted tetrahydropyrrolopyrazine compounds and the use thereof in pharmaceutical compositions” (Gruenenthal GmbH, priority 2006, dated 2011).

Tests used:
NA reuptake = assay: Inhibition of NA (noradrenaline) uptake in rat hypothalamus synaptosomes; assay type: biochemical; conditions: synaptosomes from hypothalamus of male rat brains
Experimental: (§1) Biological Data Inhibition of NA and 5HT Uptake
(§2) In order to be able to carry out these in vitro studies, synaptosomes are freshly isolated from areas of the rat brain. In each case a so-called “P2” fraction prepared in accordance with the instructions of Gray and Whittaker (E. G. Gray and V. P. Whittaker (1962) J. Anat. 76, 79-88) is prepared. For the NA uptake, these vesicular particles are isolated from the hypothalamus of male rat brains. A detailed description of the method can be found in the literature (M. Ch. Frink, H.-H. Hennies, W. Englberger, M. Haurand and B. Wilffert (1996) Arzneim.-Forsch./Drug Res. 46 (III), 11, 1029-1036).

Serotonin reuptake = molecular target: T1, Serotonin reuptake (Rattus norvegicus, UniProt P31652); assay: Inhibition of 5HT (serotonin) uptake in rat brain synaptosomes; assay type: biochemical; conditions: 10 μmol; synaptosomes from rat brain
T1 construct: synaptosomes are freshly isolated from areas of the rat brain; from tissue; host or cells: rat brain synaptosomes (P2 fraction)
Experimental: as §1, §2

T1 sequence (P31652 whole entry): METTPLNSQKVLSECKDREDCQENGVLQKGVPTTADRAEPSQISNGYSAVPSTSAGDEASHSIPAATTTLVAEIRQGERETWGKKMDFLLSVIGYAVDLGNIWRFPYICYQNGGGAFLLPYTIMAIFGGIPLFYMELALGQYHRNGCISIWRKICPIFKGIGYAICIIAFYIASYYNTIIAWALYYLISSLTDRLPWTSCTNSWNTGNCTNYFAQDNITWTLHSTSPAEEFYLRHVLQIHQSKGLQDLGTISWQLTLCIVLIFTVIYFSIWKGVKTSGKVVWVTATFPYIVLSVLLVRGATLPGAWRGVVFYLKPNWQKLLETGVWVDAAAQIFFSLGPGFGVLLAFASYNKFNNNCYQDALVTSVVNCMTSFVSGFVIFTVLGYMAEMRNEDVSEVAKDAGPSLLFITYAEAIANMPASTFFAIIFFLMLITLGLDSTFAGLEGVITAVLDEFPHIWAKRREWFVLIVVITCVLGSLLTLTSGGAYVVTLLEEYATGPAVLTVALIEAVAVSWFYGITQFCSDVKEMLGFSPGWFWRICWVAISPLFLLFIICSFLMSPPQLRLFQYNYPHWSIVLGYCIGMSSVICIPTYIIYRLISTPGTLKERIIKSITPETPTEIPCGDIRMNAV

Structure (SMILES) | NA reuptake % inhibition [10 μmol] (NA reuptake) [%] | inhibition at 10 µM (Serotonin reuptake) [%]
Cc1ccccc1C(=O)N1CCn2cccc2C1c1ccc2c(c1)OCCO2 (stereo not drawn) [Example 34, [1-(2,3-dihydro-benzo[1,4]dioxin-6-yl)-3,4-dihydro-1H-pyrrolo[1,2-a]pyrazin-2-yl]-o-tolyl-methanone] | 22 | 52
COc1ccccc1C1c2cccn2CCN1C(=O)c1ccc2c(c1)OCO2 (stereo not drawn) [Example 3, benzo[1,3]dioxol-5-yl-[1-(2-methoxy-phenyl)-3,4-dihydro-1H-pyrrolo[1,2-a]pyrazin-2-yl]-methanone] | 29 | 86
Cc1ccccc1C(=O)N1CCn2cccc2C1c1ccc(F)cc1 (stereo not drawn) [Example 75, (1-(4-fluorophenyl)-3,4-dihydropyrrolo[1,2-a]pyrazin-2(1H)-yl)(o-tolyl)methanone] | 17 | 38
CN(C)c1ccc(C2c3cccn3CCN2C(=O)c2ccccc2F)cc1 (stereo not drawn) [Example 51, (1-(4-(dimethylamino)phenyl)-3,4-dihydropyrrolo[1,2-a]pyrazin-2(1H)-yl)(2-fluorophenyl)methanone] | 19 | 43
O=C(c1cccc(F)c1)N1CCn2cccc2C1c1cccc(Cl)c1 (stereo not drawn) [Example 43, [1-(3-chloro-phenyl)-3,4-dihydro-1H-pyrrolo[1,2-a]pyrazin-2-yl]-(3-fluoro-phenyl)-methanone] | 66 | 58
CC(C)CC(=O)N1CCn2cccc2C1c1ccc(Cl)c(Cl)c1 (stereo not drawn) [Example 64, 1-(1-(3,4-dichlorophenyl)-3,4-dihydropyrrolo[1,2-a]pyrazin-2(1H)-yl)-3-methylbutan-1-one] | 30 | 48
Cc1ccccc1C(=O)N1CCn2cccc2C1c1cccs1 (stereo not drawn) [Example 57, (1-(thiophen-2-yl)-3,4-dihydropyrrolo[1,2-a]pyrazin-2(1H)-yl)(o-tolyl)methanone] | 15 | 44
O=C(c1ccc2c(c1)OCO2)N1CCn2cccc2C1c1ccc(Cl)c(Cl)c1 (stereo not drawn) [Example 61, benzo[1,3]dioxol-5-yl-[1-(3,4-dichloro-phenyl)-3,4-dihydro-1H-pyrrolo[1,2-a]pyrazin-2-yl]-methanone] | 68 | 64
O=C(C1CCCC1)N1CCn2cccc2C1c1ccc(Cl)c(Cl)c1 (stereo not drawn) [Example 62, cyclopentyl-[1-(3,4-dichloro-phenyl)-3,4-dihydro-1H-pyrrolo[1,2-a]pyrazin-2-yl]-methanone] | 29 | 51
O=C(C1CCCC1)N1CCn2cccc2C1c1cccc(Cl)c1 (stereo not drawn) [Example 42, (1-(3-chlorophenyl)-3,4-dihydropyrrolo[1,2-a]pyrazin-2(1H)-yl)(cyclopentyl)methanone] | 22 | 30
Cc1cccc(C2c3cccn3CCN2C(=O)C2CCCC2)c1 (stereo not drawn) [Example 17, cyclopentyl(1-m-tolyl-3,4-dihydropyrrolo[1,2-a]pyrazin-2(1H)-yl)methanone] | 21 | 34
O=C(CCCc1ccccc1)N1CCn2cccc2C1c1cccs1 (stereo not drawn) [Example 87, 4-phenyl-1-(1-(thiophen-2-yl)-3,4-dihydropyrrolo[1,2-a]pyrazin-2(1H)-yl)butan-1-one] |  | 17
O=C(c1cccs1)N1CCn2cccc2C1c1ccc2c(c1)OCCO2 (stereo not drawn) [Example 36, [1-(2,3-dihydro-benzo[1,4]dioxin-6-yl)-3,4-dihydro-1H-pyrrolo[1,2-a]pyrazin-2-yl]-thiophen-2-yl-methanone] | 41 | 59
CN(C)c1ccc(C2c3cccn3CCN2C(=O)c2ccc(F)cc2)cc1 (stereo not drawn) [Example 54, (1-(4-(dimethylamino)phenyl)-3,4-dihydropyrrolo[1,2-a]pyrazin-2(1H)-yl)(4-fluorophenyl)methanone] | 40 | 47
O=C(c1cccs1)N1CCn2cccc2C1c1ccccc1 (stereo not drawn) [Example 22, (1-phenyl-3,4-dihydropyrrolo[1,2-a]pyrazin-2(1H)-yl)(thiophen-2-yl)methanone] | 33 | 18
O=C(C1CCC1)N1CCn2cccc2C1c1ccc(F)cc1 (stereo not drawn) [Example 28, cyclobutyl(1-(4-fluorophenyl)-3,4-dihydropyrrolo[1,2-a]pyrazin-2(1H)-yl)methanone] | 21 | 29
COc1ccccc1C1c2cccn2CCN1C(=O)C1CCCC1 (stereo not drawn) [Example 2, cyclopentyl-[1-(2-methoxy-phenyl)-3,4-dihydro-1H-pyrrolo[1,2-a]pyrazin-2-yl]-methanone] | 36 | 79
Cc1ccccc1C1c2cccn2CCN1C(=O)c1ccccc1F (stereo not drawn) [Example 32, (2-fluorophenyl)(1-o-tolyl-3,4-dihydropyrrolo[1,2-a]pyrazin-2(1H)-yl)methanone] | 14 | 29

Structure (SMILES) | NA reuptake % inhibition [10 μmol] (NA reuptake) [%] | inhibition at 10 µM (Serotonin reuptake) [%]
O=C(c1ccccc1F)N1CCn2cccc2C1c1ccccc1F (stereo not drawn) [Example 47, (2-fluorophenyl)(1-(2-fluorophenyl)-3,4-dihydropyrrolo[1,2-a]pyrazin-2(1H)-yl)methanone] | 12 | 18
CCC(C)C(=O)N1CCn2cccc2C1c1ccccc1OC (stereo not drawn) [Example 48, 1-(1-(2-methoxyphenyl)-3,4-dihydropyrrolo[1,2-a]pyrazin-2(1H)-yl)-2-methylbutan-1-one] |  | 27
O=C(C1CCCC1)N1CCn2cccc2C1c1ccccc1 (stereo not drawn) [Example 24, cyclopentyl(1-phenyl-3,4-dihydropyrrolo[1,2-a]pyrazin-2(1H)-yl)methanone] | 44 | 32
O=C(c1ccc2c(c1)OCO2)N1CCn2cccc2C1c1ccc2c(c1)OCCO2 (stereo not drawn) [Example 33, benzo[1,3]dioxol-5-yl-[1-(2,3-dihydro-benzo[1,4]dioxin-6-yl)-3,4-dihydro-1H-pyrrolo[1,2-a]pyrazin-2-yl]-methanone] | 26 | 52
O=C(c1cccs1)N1CCn2cccc2C1c1ccc(Cl)c(Cl)c1 (stereo not drawn) [Example 65, (1-(3,4-Dichlorophenyl)-3,4-dihydropyrrolo[1,2-a]pyrazin-2(1H)-yl)(thiophen-2-yl)methanone] | 49 | 43
COc1ccccc1C(=O)N1CCn2cccc2C1c1ccccc1 (stereo not drawn) [Example 27, (2-methoxyphenyl)(1-phenyl-3,4-dihydropyrrolo[1,2-a]pyrazin-2(1H)-yl)methanone] | 15 | 28
O=C(CCc1ccccc1)N1CCn2cccc2C1c1cccs1 (stereo not drawn) [Example 76, 3-phenyl-1-(1-(thiophen-2-yl)-3,4-dihydropyrrolo[1,2-a]pyrazin-2(1H)-yl)propan-1-one] | 46 | 36
O=C(c1ccc(F)cc1)N1CCn2cccc2C1c1cccs1 (stereo not drawn) [Example 60, (4-fluorophenyl)(1-(thiophen-2-yl)-3,4-dihydropyrrolo[1,2-a]pyrazin-2(1H)-yl)methanone] | 11 | 37
CC(=O)N1CCn2cccc2C1c1cccs1 (stereo not drawn) [Example 83, 1-(1-(thiophen-2-yl)-3,4-dihydropyrrolo[1,2-a]pyrazin-2(1H)-yl)ethanone] |  | 16
CC(C)(C)CC(=O)N1CCn2cccc2C1c1cccs1 (stereo not drawn) [Example 85, 3,3-dimethyl-1-(1-(thiophen-2-yl)-3,4-dihydropyrrolo[1,2-a]pyrazin-2(1H)-yl)butan-1-one] |  | 12
CC1c2cccn2CCN1C(=O)/C=C/c1ccc(F)cc1 (stereo not drawn) [Example 73, 3-(4-fluorophenyl)-1-(1-methyl-3,4-dihydropyrrolo[1,2-a]pyrazin-2(1H)-yl)prop-2-en-1-one] |  | 25
CCCCCC(=O)N1CCn2cccc2C1c1cccs1 (stereo not drawn) [Example 78, 1-(1-(thiophen-2-yl)-3,4-dihydropyrrolo[1,2-a]pyrazin-2(1H)-yl)hexan-1-one] |  | 51
O=C(c1ccccc1)N1CCn2cccc2C1c1cccs1 (stereo not drawn) [Example 82, phenyl(1-(thiophen-2-yl)-3,4-dihydropyrrolo[1,2-a]pyrazin-2(1H)-yl)methanone] | 35 | 
CC1c2cccn2CCN1C(=O)/C=C/c1ccc(SC(F)(F)F)cc1 (stereo not drawn) [Example 74, 1-(1-methyl-3,4-dihydropyrrolo[1,2-a]pyrazin-2(1H)-yl)-3-(4-(trifluoromethylthio)phenyl)prop-2-en-1-one] |  | 32
CCC(OC)C(=O)N1CCn2cccc2C1c1cccs1 (stereo not drawn) [Example 55, 2-methoxy-1-(1-(thiophen-2-yl)-3,4-dihydropyrrolo[1,2-a]pyrazin-2(1H)-yl)butan-1-one] |  | 28
Cc1ccccc1C(=O)N1CCn2cccc2C1c1ccccc1C (stereo not drawn) [Example 11, o-tolyl(1-o-tolyl-3,4-dihydropyrrolo[1,2-a]pyrazin-2(1H)-yl)methanone] |  | 38
COc1ccccc1C1c2cccn2CCN1C(=O)c1cccc(F)c1 (stereo not drawn) [Example 1, (3-fluorophenyl)(1-(2-methoxyphenyl)-3,4-dihydropyrrolo[1,2-a]pyrazin-2(1H)-yl)methanone] |  | 26
CCC(C)C(=O)N1CCn2cccc2C1c1ccccc1C (stereo not drawn) [Example 31, 2-methyl-1-(1-o-tolyl-3,4-dihydropyrrolo[1,2-a]pyrazin-2(1H)-yl)butan-1-one] |  | 26
